Experimental data: patent US20120264827A1, “SULFANYLAMIDE DERIVATIVES, USES THEREOF AND COMPOSITIONS COMPRISING THEM” (YISSUM RESEARCH DEVELOPMENT COMPANY OF THE HEBREW …, priority 2009, published 2012)
Read-outs that look alike come from different tables or passages of the source.

Tests used:
[1] = test system: maximal electroshock seizure (MES); assay: Maximal electroshock seizure test (MES), rats, oral; conditions: for responders at 30 mg/kg / ED50: Rattus norvegicus, po; for responders at 30 mg/kg: read-out: Anti-MES activity (number of animals protected/number of animals tested); for ED50: read-out: MES ED50, rats dosed orally;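 as to all read-outs here: adult male Sprague-Dawley rats received test compounds by mouth as a suspension in 0.5% methylcellulose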
Experimental: (§1) The tested compounds were suspended in 0.5% methylcellulose and administered (a) intraperitioneally (ip) to adult male CF no. 1 albino mice (18-25 g) in volume of 0.01 mL/g body weight and (b) orally to adult male Sprague-Dawley albino rats (100-150 g) in volume of 0.04 mL per 10 g of body weight.
(§2) The TD50 was determined by varying the dose of the tested compounds until four points were established between the dose level that induced no signs of minimal motor impairment in any of the animals and the dose at which all the animals were considered impaired. […] The PIs were calculated by dividing the TD50 by the ED50.

[2] = test system: maximal electroshock seizure (MES); conditions: male, Sprague-Dawley, rat, in vivo, po
Experimental: as §1, §2

[3] = test system: subcutaneous metrazol (pentylenetetrazol) seizure; assay: animal or person; conditions: Rattus norvegicus, po, read-out: scMet ED50
Experimental: (§3) The evaluation of the anticonvulsant activity in the maximal electroshock seizure test (MES) and subcutaneous metrazol seizure threshold test (scMet) and the determination of neurotoxicity in the rotorod test, positional sense test, and others were performed according to the protocols described in White, H. S., Woodhead J. H., Wilcox K. S., Stables J. P., Kupferberg H. J., Wolf H. H., Discovery and Preclinical Development of Antiepileptic Drugs; 5th ed.; Lippincott Williams &Wilkins: New york, 2002; 36-48.
(§4) The tested compounds were suspended in 0.5% methylcellulose and administered (a) intraperitioneally (ip) to adult male CF no. 1 albino mice (18-25 g) in volume of 0.01 mL/g body weight and (b) orally to adult male Sprague-Dawley albino rats (100-150 g) in volume of 0.04 mL per 10 g of body weight. The pentylenetetrazol solution at convulsing dose was prepared by sufficient dissolution of pentylenetetrazol in 0.9% saline to make 0.85% solution for administration to mice and a 2.82% solution for administration to rats.
as §2

[4] = in vivo; conditions: male, Sprague-Dawley, rat, po
Experimental: as §1, §2

[5] = test system: subcutaneous metrazol (pentylenetetrazol) seizure; assay: Subcutaneous metrazol seizure threshold test (scMet), mice, intraperitoneal; format: in vivo; conditions: ip;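 also: adult male CF no. 1 albino mice weighing 18-25 g, dosed intraperitoneally with compounds suspended in 0.5% methylcellulose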
[6] = test system: maximal electroshock seizure (MES); assay: Maximal electroshock seizure test (MES), mice, intraperitoneal; format: in vivo; conditions: ip;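 also: adult male CF no. 1 albino mice of 18–25 g, given compound intraperitoneally as a 0.5% methylcellulose suspension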
[7] = test system: subcutaneous metrazol (pentylenetetrazol) seizure; conditions: male, Sprague-Dawley, rat, in vivo, po
Experimental: as §3, §4, §2

[8] = test system: maximal electroshock seizure (MES); conditions: rats, cited from earlier work; for PI (TD50/ED50) in rat MES test: reference or literature compound
[9] = test system: subcutaneous metrazol (pentylenetetrazol) seizure; conditions: reference AED; species not stated; cited from earlier work
[10] = test system: maximal electroshock seizure (MES); conditions: cited from earlier work
[11] = test system: rats; assay: Neurotoxicity, median neurotoxic dose (TD50), rats, oral; conditions: rats dosed orally
Experimental: as §1, §2

[12] = interval in parentheses = 95% confidence interval
[13] = 30 mg/kg, 0.5 h after administration
[14] = 30 mg/kg, 4 h after administration
[15] = 100 mg/kg, 0.5 h after administration
[16] = 100 mg/kg, 4 h after administration
[17] = 300 mg/kg, 0.5 h after administration
[18] = 300 mg/kg, 4 h after administration

| SMILES | responders at 30 mg/kg ([1]; 0.5 h) | responders at 30 mg/kg ([1]; 1 h) | responders at 30 mg/kg ([1]; 2 h) | responders at 30 mg/kg ([1]; 4 h) | responders at 30 mg/kg ([1]; […]) | ED50 [1, 12] | PI, protective index (PI = TD50/ED50) in the MES test [2] | TD50 [4] | scMet (number of animals protected/number of animals tested) [5, 13] | scMet (number of animals protected/number of animals tested) [5, 14] | scMet (number of animals protected/number of animals tested) [5, 15] | scMet (number of animals protected/number of animals tested) [5, 16] | scMet (number of animals protected/number of animals tested) [5, 17] | scMet (number of animals protected/number of animals tested) [5, 18] | MES (number of animals protected/number of animals tested) [6, 13] | MES (number of animals protected/number of animals tested) [6, 14] | MES (number of animals protected/number of animals tested) [6, 15] | MES (number of animals protected/number of animals tested) [6, 16] | MES (number of animals protected/number of animals tested) [6, 17] | MES (number of animals protected/number of animals tested) [6, 18] | also measured |
| --- | --- | --- | --- | --- | --- | --- | --- | --- | --- | --- | --- | --- | --- | --- | --- | --- | --- | --- | --- | --- | --- |
| CCCCC(CC)C(=O)Nc1ccc(S(N)(=O)=O)cc1 (centres unmarked) [Compound 25, 2-Ethyl-N-(4-sulfamoyl-phenyl)-hexanamide] | 0% | 100% | 75% | 100% | 0% | 23.9 mg/kg | >21.0 | > 500 mg/kg | 0/1 | 0/1 0/1 0/1 | 2/5 | 0/1 0/1 0/1 | 3/5 | 0/1 0/1 0/1 | 0/1 | 0/1 | 3/3 | 3/3 | 1/1 | 1/1 | ED50 [3]: > 250 mg/kg; melting point: 188 to 190 °C; PI, protective index (PI = TD50/ED50) in the scMet test [7]: >2 |
| NS(=O)(=O)Cc1noc2ccccc12 [Zonisamide] | – | – | – | – | – | – | – | – | – | – | – | – | – | – | – | – | – | – | – | – | Rat-MES test ED50 ([8]; reference AED): 21 mg/kg; PI (TD50/ED50) in rat MES test [8]: 9.1; anticonvulsant activity in the scMet test [9]: does not display anticonvulsant activity |
| CC1(C)C(C(=O)Nc2nnc(S(N)(=O)=O)s2)C1(C)C [5-(2,2,3,3-tetramethylcyclopropanecarboxamide)-1,3,4-thiamidazole-2-sulfonamide] | – | – | – | – | – | – | – | – | – | – | – | – | – | – | – | – | – | – | – | – | PI (TD50/ED50) in rat MES test [8]: above 50 |
| CC1(C)C(C(=O)Nc2ccc(S(N)(=O)=O)cc2)C1(C)C [Compound 7, 4-(2,2,3,3-tetramethylcyclopropanecarboxamido)-benzenesulfon amide] | – | – | – | – | – | – | – | – | – | – | – | – | – | – | – | – | – | – | – | – | MES test ED50 ([10]; MES test in mice and rats, previously synthesized by the inventors): 26 mg/kg |
| CC(C)(C)C(=O)Nc1ccc(S(N)(=O)=O)cc1 [Compound 9, 2,2-Dimethyl-N-(4-sulfamoyl-phenyl)-propionamide] | 0% | 75% | 50% | 100% | 0% | 42 mg/kg | >11.8 | > 500 mg/kg | 0/1 0/1 0/1 | 0/1 0/1 0/1 | 0/1 0/1 0/1 | 0/1 0/1 0/1 | 0/1 0/1 0/1 | 0/1 0/1 0/1 | 0/1 | 0/1 | 1/3 | 2/3 | 1/1 | 1/1 | MES ED50 ([1]; rats dosed orally, interval in parentheses = 95% confidence interval): 42.2 (22.9-86.4) mg/kg; melting point: 228 to 229 °C |
| CCCC(C)C(=O)Nc1ccc(S(N)(=O)=O)cc1 (centres unmarked) [Compound 16, 2-Methyl-N-(4-sulfamoyl-phenyl)-pentanamide] | 25% | 100% | 100% | 100% | 25% | ~10 mg/kg | >46.3 | > 500 mg/kg | 0/1 0/1 0/1 | 0/1 0/1 0/1 | 0/1 0/1 0/1 | 0/1 0/1 0/1 | 0/1 0/1 0/1 | 0/1 0/1 0/1 | 0/1 | 0/1 | 0/3 | 2/3 | 0/1 | 1/1 | ED50 [3]: > 250 mg/kg; PI, protective index (PI = TD50/ED50) in the scMet test [7]: >2 |
| NS(=O)(=O)c1ccc(NC(=O)Cc2ccccc2)cc1 [Compound 30, 2-Phenyl-N-(4-sulfamoyl-phenyl)-acetamide] | 0% | 100% | 75% | 100% | 0% | 16.1 mg/kg | >31.0 | > 500 mg/kg | 0/1 0/1 0/1 | 0/1 0/1 0/1 | 0/1 0/1 0/1 | 0/1 0/1 0/1 | 0/1 0/1 0/1 | 0/1 0/1 0/1 | 0/1 | 0/1 | 3/3 | 3/3 | 1/1 | 1/1 | ED50 [3]: > 250 mg/kg; PI, protective index (PI = TD50/ED50) in the scMet test [7]: >2 |
| CCCC(C(=O)Nc1ccc(S(N)(=O)=O)cc1)C(C)C (centres unmarked) [Compound 18, 2-Isopropyl-N-(4-sulfamoyl-phenyl)-pentanamide] | 0% | 100% | 75% | 50% | 0% | 41.5 mg/kg | >12.0 | > 500 mg/kg | 0/1 0/1 0/1 | 0/1 0/1 0/1 | 0/1 0/1 0/1 | 0/1 0/1 0/1 | 0/1 0/1 0/1 | 0/1 0/1 0/1 | 0/1 | 0/1 | 0/3 | 2/3 | 1/1 | 1/1 | ED50 [3]: > 250 mg/kg; melting point: 217 to 219 °C; PI, protective index (PI = TD50/ED50) in the scMet test [7]: >2 |
| CCCC(CCC)C(=O)O [VPA, 2-propylpentanoic acid] | – | – | – | – | – | – | – | – | – | – | – | – | – | – | – | – | – | – | – | – | TD50 (neurotoxicity) [11]: 784 mg/kg |
| CCCC(CCC)C(=O)Nc1ccc(S(N)(=O)=O)cc1 [Compound 6, 4-(valproylamido)-benzenesulfonamide] | – | – | – | – | – | – | – | – | – | – | – | – | – | – | – | – | – | – | – | – | mice-MES test ED50 ([10]; mice, previous studies): 21 mg/kg |
